# According to US20160200733A1, “SUBSTITUTED THIENO[2,3-B]PYRIDINE-2-CARBOXAMIDE ANALOGS AS POSITIVE ALLOSTERIC MODULATORS OF THE MUSCARINIC ACETYLCHOLINE RECEPTOR M4” (Vanderbilt University, priority 2013, published 2016):
# Molecular target: T1, mAChR hM4 (Homo sapiens, UniProt P08173)
# T1 construct: expressed in transfected cells; host or cells: CHO-K1 (Chinese hamster ovary) cells
# T1 sequence (P08173 1-479): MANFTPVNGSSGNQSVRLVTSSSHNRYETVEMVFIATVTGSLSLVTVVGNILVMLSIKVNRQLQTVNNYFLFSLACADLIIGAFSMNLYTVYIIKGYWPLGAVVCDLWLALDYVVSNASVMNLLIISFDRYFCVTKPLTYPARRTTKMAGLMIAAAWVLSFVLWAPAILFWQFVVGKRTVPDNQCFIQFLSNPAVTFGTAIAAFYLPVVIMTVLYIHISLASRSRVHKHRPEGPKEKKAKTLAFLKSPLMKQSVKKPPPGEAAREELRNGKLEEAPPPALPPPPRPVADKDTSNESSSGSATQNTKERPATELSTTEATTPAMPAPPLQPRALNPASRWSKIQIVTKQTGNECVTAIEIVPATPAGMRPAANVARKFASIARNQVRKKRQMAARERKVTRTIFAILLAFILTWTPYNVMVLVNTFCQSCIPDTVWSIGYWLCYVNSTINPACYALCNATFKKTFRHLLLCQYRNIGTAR
# Test: mAChR M4 cell-based functional assay (calcium flux, potentiation of EC20 acetylcholine response)
# Settings: mAChR hM4 cell-line; for EC50: >10,000 estimated for low potency compounds lacking a plateau; for Emax at 30 µM: % ACh maximum at 30 μM
# Outline: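 CHO-K1 cells expressing human M4, loaded with Fluo-4 Ca2+ dye; potentiation of an EC20 acetylcholine response read as increase in fluorescence static ratio. EC50 and Emax from concentration-dependent increase over the EC20 response.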
SMILES,EC50 [µM],Emax at 30 µM [%]
"Cc1nc2sc(C(=O)NC3COC3)c(-c3ccc4nccnc4c3)c2c(C)c1Cl [Compound 116, 5-chloro-4,6-dimethyl-N-(oxetan-3-yl)-3-(quinoxalin-6-yl)thieno[2,3-b]pyridine-2-carboxamide]",> 10,
"Cc1nc2sc(C(=O)NC3COC3)c(-c3ccsc3)c2c(C)c1Cl [Compound 117, 5-chloro-4,6-dimethyl-N-(oxetan-3-yl)-3-(thiophen-3-yl)thieno[2,3-b]pyridine-2-carboxamide]",> 10,
"Cc1nc2sc(C(=O)NCC3CC3)c(Cl)c2c(C)c1Cl [Compound 119, 3,5-dichloro-N-(cyclopropylmethyl)-4,6-dimethylthieno[2,3-b]pyridine-2-carboxamide]",> 10,
"Cc1nc2sc(C(=O)N[C@@H](C)C3CC3)c(Cl)c2c(C)c1Cl [Compound 120, (S)-3,5-dichloro-N-(1-cyclopropylethyl)-4,6-dimethylthieno[2,3-b]pyridine-2-carboxamide]",> 10,
"Cc1nc2sc(C(=O)N[C@H](C)C3CC3)c(Cl)c2c(C)c1Cl [Compound 121, (R)-3,5-dichloro-N-(1-cyclopropylethyl)-4,6-dimethylthieno[2,3-b]pyridine-2-carboxamide]",> 10,
"Cc1nc2sc(C(=O)NC3CCC3)c(Cl)c2c(C)c1Cl [Compound 123, 3,5-dichloro-N-cyclobutyl-4,6-dimethylthieno[2,3-b]pyridine-2-carboxamide]",> 10,34
"Cc1nc2sc(C(=O)NCC3(C)COC3)c(Cl)c2c(C)c1Cl [Compound 125, 3,5-dichloro-4,6-dimethyl-N-((3-methyloxetan-3-yl)methyl)thieno[2,3-b]pyridine-2-carboxamide]",> 10,
"Cc1nc2sc(C(=O)NC3[C@H]4C[C@@H]3C4)c(Cl)c2c(C)c1Cl (some centres unmarked) [Compound 127, N-((1s,3s)-bicyclo[1.1.1]pentan-2-yl)-3,5-dichloro-4,6-dimethylthieno[2,3-b]pyridine-2-carboxamide]",> 10,35
"Cc1nc2sc(C(=O)NC3CC(F)(F)C3)c(Cl)c2c(C)c1Cl [Compound 128, 3,5-dichloro-N-(3,3-difluorocyclobutyl)-4,6-dimethylthieno[2,3-b]pyridine-2-carboxamide]",> 10,33
"Cc1nc2sc(C(=O)NCC3CCC3)c(Cl)c2c(C)c1Cl [Compound 129, 3,5-dichloro-N-(cyclobutylmethyl)-4,6-dimethylthieno[2,3-b]pyridine-2-carboxamide]",> 10,
"Cc1cc(C)c2c(Br)c(C(=O)NC(C)C)sc2n1 [Example 1, 3-bromo-N-isopropyl-4,6-dimethylthieno[2,3-b]pyridine-2-carboxamide]",> 10,

# Stronger by EC50, values ahead:
EC50 [µM],Emax at 30 µM [%],SMILES
1.5,56,"Cc1nc2sc(C(=O)NC3CC3)c(Cl)c2c(C)c1Cl [Compound 118, 3,5-dichloro-N-cyclopropyl-4,6-dimethylthieno[2,3-b]pyridine-2-carboxamide]"
2.6,61,"Cc1nc2sc(C(=O)NC3(C)COC3)c(Cl)c2c(C)c1Cl [Compound 122, 3,5-dichloro-4,6-dimethyl-N-(3-methyloxetan-3-yl)thieno[2,3-b]pyridine-2-carboxamide]"
1.2,43,"Cc1nc2sc(C(=O)NC3CCOC3)c(Cl)c2c(C)c1Cl (centres unmarked) [Compound 124, 3,5-dichloro-4,6-dimethyl-N-(tetrahydrofuran-3-yl)thieno[2,3-b]pyridine-2-carboxamide]"
0.53,67,"Cc1nc2sc(C(=O)NC3COC3)c(Cl)c2c(C)c1Cl [Compound 126, 3,5-dichloro-4,6-dimethyl-N-(oxetan-3-yl)thieno[2,3-b]pyridine-2-carboxamide]"
3.3,68,"Cc1cc(C)c2c(Br)c(C(=O)NC3COC3)sc2n1 [Example 2, 3-bromo-4,6-dimethyl-N-(oxetan-3-yl)thieno[2,3-b]pyridine-2-carboxamide]"
3.9,44,"Cc1cc(C)c2c(Br)c(C(=O)N3CCCC3)sc2n1 [Example 3, (3-bromo-4,6-dimethylthieno[2,3-b]pyridin-2-yl)(pyrrolidin-1-yl)methanone]"
